Results taken from patent publication US20210386367A1, “DEVICES AND SYSTEMS FOR GASTROINTESTINAL MICROBIOME DETECTION AND MANIPULATION” (Progenity, Inc., priority 2018, published 2021).
In brackets after ≈: the same amount, converted by molar mass. Where two headings read alike, the source gives them in different places.

How the values were obtained:
Streptococcus agalactiae = settings: cited from earlier work
[1] = tested on: Clostridium spp. clinical isolates; test: MIC distribution against clinical isolates; assay type: cell-based; settings: 10 Clostridium spp. isolates
Description: (n=4 C. sporogenes, n=2 C. ramosum and n=4 C. innocuum) clinical isolates (μg/mL).
As used herein, “minimum inhibitory concentration” or “MIC” refers to the lowest concentration of an antimicrobial agent, for example, an antimicrobial agent as described herein, required to inhibit the growth of an organism. […] “MIC90” represents the MIC value at which ≥90% of the strains within a test population are inhibited; the 90th percentile.
Many susceptibility testing methods are known in the art and can be used as described herein (see, e.g., Jorgensen and Ferraro (2009) Clinical Infectious Diseases 49:1749-1755; and Maurer et al. (2017) Infectious Disease Reports 9:6839; the entire contents of each of the foregoing are incorporated herein by reference). For example, antimicrobial susceptibility can be determined using conventional culture based methods such as the broth or agar dilution test. In these dilution tests, the bacterial isolate of interest is inoculated onto different media that include serial dilutions of an antimicrobial agent, and incubated under appropriate conditions (e.g., overnight at 37° C.) to allow for growth to occur. Following the incubation period, the media is examined to determine bacterial growth. The lowest concentration of antibiotic that prevents growth represents the minimal inhibitory concentration (MIC). Broth dilution tests can be miniaturized and mechanized allowing for reproducibility and high throughput.

Escherichia coli [2] = settings: cited from earlier work
[3] = tested on: Bacteroides thetaiotaomicron; settings: cited from earlier work
Fusobacterium spp [4] = settings: cited from earlier work
Veillonella spp = settings: cited from earlier work
Klebsiella pneumoniae = settings: cited from earlier work
Enterobacteriaceae = settings: cited from earlier work
Proteus mirabilis [5] = settings: cited from earlier work
Haemophilus influenzae = settings: cited from earlier work
Escherichia coli [6] = settings: cited from earlier work; remark: listed apart in the source
Citrobacter spp. = settings: cited from earlier work
Proteus mirabilis [7] = settings: cited from earlier work; remark: listed apart in the source
Klebsiella spp. [8] = settings: cited from earlier work
Bacteroides fragilis = settings: cited from earlier work
Prevotella bivia = settings: cited from earlier work
MDR Enterobacteriaceae = settings: cited from earlier work
Bacteroides vulgatus [9] = settings: cited from earlier work
Pseudomonas aeruginosa = settings: cited from earlier work
Klebsiella spp. [10] = settings: cited from earlier work; remark: listed apart in the source
Escherichia coli [11] = settings: cited from earlier work; remark: listed apart in the source
[12] = tested on: Bacteroides thetaiotaomicron; settings: cited from earlier work; remark: listed apart in the source
Bacteroides vulgatus [13] = settings: cited from earlier work; remark: listed apart in the source
Prevotella spp. = settings: cited from earlier work
Bacteroides spp = settings: cited from earlier work
Staphylococci = settings: cited from earlier work
Fusobacterium spp [14] = settings: cited from earlier work; remark: listed apart in the source
Enterobacter spp. = settings: cited from earlier work

## CO/N=C(\C(=O)N[C@@H]1C(=O)N2C(C(=O)O)=C(CSc3nc(=O)c(=O)[nH]n3C)CS[C@H]12)c1csc(N)n1 [ceftriaxone]
Streptococcus agalactiae
  MIC50: 0.025 µg/mL (≈ 0.0451 µM)
  MIC90: 0.1 µg/mL (≈ 0.18 µM)
  MIC range: 0.012 to 0.1 µg/mL
[1]; MIC 4 μg/mL
  Cumulative percentage of isolates inhibited at MIC: 40.0%
Escherichia coli [2]
  % S: 87%
  MIC50: ≤0.25 µg/mL
  MIC90: 32 µg/mL (≈ 57.7 µM)
[3]
  % S: 2%
  MIC50: 32 µg/mL (≈ 57.7 µM)
  MIC90: >32 µg/mL
Fusobacterium spp [4]
  % S: 87%
  MIC50: 0.5 µg/mL (≈ 0.902 µM)
  MIC90: 32 µg/mL (≈ 57.7 µM)
Veillonella spp
  % S: 79%
  MIC50: 4 µg/mL (≈ 7.21 µM)
  MIC90: 8 µg/mL (≈ 14.4 µM)
  MIC range: 0.03 to 8 µg/mL

## C[C@@H](O)[C@H]1C(=O)N2C(C(=O)O)=C(S[C@@H]3CN[C@H](C(=O)N(C)C)C3)[C@H](C)[C@H]12 [meropenem]
Klebsiella pneumoniae
  % S: 38.3%
  MIC50: 8 µg/mL (≈ 20.9 µM)
  MIC90: 64 µg/mL (≈ 167 µM)
Enterobacteriaceae
  % S: 97.2%
  MIC50: 0.03 µg/mL (≈ 0.0782 µM)
  MIC90: 0.12 µg/mL (≈ 0.313 µM)
Proteus mirabilis [5]
  % S: 95.5%
  MIC50: 0.12 µg/mL (≈ 0.313 µM)
  MIC90: 0.25 µg/mL (≈ 0.652 µM)
  MIC range: 0.12 to 16 µg/mL
Haemophilus influenzae
  MIC50: ≤0.125 µg/mL
  MIC90: 0.5 µg/mL (≈ 1.3 µM)
Escherichia coli [6]
  % S: 83.1%
  MIC50: ≤0.06 µg/mL
  MIC90: 32 µg/mL (≈ 83.4 µM)
Citrobacter spp.
  % S: 86.4%
  MIC50: ≤0.06 µg/mL
  MIC90: 4 µg/mL (≈ 10.4 µM)
Proteus mirabilis [7]
  % S: 99.4%
  MIC50: 0.06 µg/mL (≈ 0.156 µM)
  MIC90: 0.12 µg/mL (≈ 0.313 µM)
Klebsiella spp. [8]
  % S: 78.3%
  MIC50: ≤0.06 µg/mL
  MIC90: >8 µg/mL
Bacteroides fragilis
  % S: 94.5%
  MIC50: 0.25 µg/mL (≈ 0.652 µM)
  MIC90: 4 µg/mL (≈ 10.4 µM)
Prevotella bivia
  % S: 100%
  MIC50: 0.03 µg/mL (≈ 0.0782 µM)
  MIC90: ≤0.03 µg/mL
  MIC range: ≤0.03 to 0.06 µg/mL
MDR Enterobacteriaceae
  % S: 75%
  MIC50: ≤0.12 µg/mL
  MIC90: >8 µg/mL
Bacteroides vulgatus [9]
  % S: 100%
  MIC50: 0.5 µg/mL (≈ 1.3 µM)
  MIC90: 1 µg/mL (≈ 2.61 µM)
  MIC range: 0.125 to 1 µg/mL
Pseudomonas aeruginosa
  % S: 64.2%
  MIC50: 1 µg/mL (≈ 2.61 µM)
  MIC90: >8 µg/mL

## CO[C@H]1/C=C/O[C@@]2(C)Oc3c(C)c(O)c4c(O)c(c5c(nc6cc(C)ccn65)c4c3C2=O)NC(=O)/C(C)=C\C=C\[C@H](C)[C@H](O)[C@@H](C)[C@@H](O)[C@@H](C)[C@H](OC(C)=O)[C@@H]1C [rifaximin]
Klebsiella spp. [10]
  % S: 43.6%
  MIC50: 64 µg/mL (≈ 81.4 µM)
  MIC90: 128 µg/mL (≈ 163 µM)
  MIC range: 8 to 128 µg/mL
Escherichia coli [11]
  MIC50: 32 µg/mL (≈ 40.7 µM)
  MIC90: 128 µg/mL (≈ 163 µM)
[1]; MIC 8 μg/mL
  Cumulative percentage of isolates inhibited at MIC: 20.0%
  Number of test isolates at MIC: 1
[12]
  MIC50: 1 µg/mL (≈ 1.27 µM)
  MIC90: >1024 µg/mL
Bacteroides vulgatus [13]
  MIC50: 0.25 µg/mL (≈ 0.318 µM)
  MIC90: 0.5 µg/mL (≈ 0.636 µM)
  MIC range: 0.25 to 4 µg/mL
Prevotella spp.
  MIC50: 0.25 µg/mL (≈ 0.318 µM)
  MIC90: 0.5 µg/mL (≈ 0.636 µM)
  MIC range: 0.25 to 1 µg/mL
Bacteroides spp
  MIC50: >1024 µg/mL
  MIC90: >1024 µg/mL
Staphylococci
  MIC50: ≤0.06 µg/mL
  MIC90: 64 µg/mL (≈ 81.4 µM)
  MIC range: ≤0.06 to 64 µg/mL
Fusobacterium spp [14]
  MIC50: 8 µg/mL (≈ 10.2 µM)
  MIC90: >1024 µg/mL
Enterobacter spp.
  % S: 34.8%
  MIC50: 64 µg/mL (≈ 81.4 µM)
  MIC90: 128 µg/mL (≈ 163 µM)
  MIC range: 32 to 128 µg/mL
